# From patent US11524938B2, “Aromatic sulfonamide derivatives” (Bayer Pharma Aktiengesellschaft, priority 2016, dated 2022)
# Target: T1, human P2X4 (Homo sapiens, UniProt Q99571)
# T1 sequence (Q99571 1-388): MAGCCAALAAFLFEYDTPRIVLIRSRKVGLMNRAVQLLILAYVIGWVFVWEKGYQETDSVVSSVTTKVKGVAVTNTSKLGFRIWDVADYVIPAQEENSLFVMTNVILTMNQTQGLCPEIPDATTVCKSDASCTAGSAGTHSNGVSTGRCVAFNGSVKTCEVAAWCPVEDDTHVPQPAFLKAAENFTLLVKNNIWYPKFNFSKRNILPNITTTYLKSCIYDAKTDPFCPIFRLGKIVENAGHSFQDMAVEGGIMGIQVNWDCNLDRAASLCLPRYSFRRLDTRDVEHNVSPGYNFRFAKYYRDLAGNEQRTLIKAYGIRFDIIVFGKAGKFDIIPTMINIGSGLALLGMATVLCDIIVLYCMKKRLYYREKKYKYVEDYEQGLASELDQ
# Assay: Human P2X4 HEK Cell FLIPR Assay
# Format: cell-based
# Details: agonist Bz-ATP at EC80; for Emax: HEK293, HEK293 cells, percentage of maximal inhibition, read-out: Human P2X4 HEK Cells (FLIPR Assay) avg Efficacy [%]; for IC50: HEK293 cells, individual values listed where some fall outside detection range
# Method: HEK293 cells stably expressing human P2X4 were plated in poly-D-lysine-coated 384-well plates at a seeding density of 30000 cells/well and incubated overnight. P2X4 function was assessed by measuring intracellular calcium changes using the calcium-chelating dye Fluo8-AM (Molecular Devices) on a fluorescent imaging plate reader (FLEX/FLIPR station; Molecular Devices). On the day of the assay, the medium was removed and the cells were incubated for 30 min at 37° C. and 5% CO2 in 30 μL of dye buffer (Hank's balanced salt solution, 10 mM HEPES, 1.8 mM CaCl2, 1 mM MgCl2, 2 mM probenecid, 5 mM D-glucose monohydrate, 5 μM Fluo8-AM, pH=7.4). Compounds diluted in probenecid buffer (Hank's balanced salt solution, 10 mM HEPES, 1.8 mM CaCl2, 1 mM MgCl2, 2 mM probenecid, 5 mM D-glucose monohydrate, pH=7.4) were added in a volume of 10 μL and allowed to incubate for 30 min at room temperature. The final assay DMSO concentration was 0.5%. The agonist, Bz-ATP (Tocris), was added in a volume of 10 μL at a concentration representing the EC80 value. The EC80 value of Bz-ATP was determined each assay day prior to compound profiling. The fluorescence was measured for an interval of 120 sec at 2 sec intervals. The excitation and emission wavelengths used to monitor fluorescence were 470-495 nm and 515-575 nm, respectively. The data was analyzed based on the increase in peak relative fluorescence units (RFU) compared to the basal fluorescence and the data was normalized to the agonist control. The compounds were tested in triplicates per plate and mean values were plotted in Excel XLFit to determine IC50 values, percentage of maximal inhibition and the Hill coefficients.
Emax [%],IC50 [nM],Structure (SMILES)
94,60,"NS(=O)(=O)c1cc(NC(=O)Cc2ccccc2Cl)ccc1-c1cnn(CC2CCO2)c1 (stereo not shown) [Example 283, 2-(2-Chlorophenyl)-N-(4-{1-[oxetan-2-ylmethyl]-1H-pyrazol-4-yl}-3-sulfamoylphenyl)-acetamide]"
95,42,"NS(=O)(=O)c1cc(NC(=O)Cc2ccccc2Cl)ccc1-c1c[nH]c(C(=O)C(F)F)c1 [Example 528, 2-(2-Chlorophenyl)-N-{4-[5-(difluoroacetyl)-1H-pyrrol-3-yl]-3-sulfamoylphenyl}acetamide]"
101,15,"NS(=O)(=O)c1cc(NC(=O)Cc2c(F)cccc2Cl)ccc1-c1cnn(C2CC2)c1 [Example 333, 2-(2-Chloro-6-fluorophenyl)-N-[4-(1-cyclopropyl-1H-pyrazol-4-yl)-3-sulfamoylphenyl]acetamide]"
74,187,"CC(C)c1cnn(-c2ccc(NC(=O)Cc3ccccc3F)cc2S(N)(=O)=O)c1 [Example 517, 2-(2-Fluorophenyl)-N-[4-(4-isopropyl-1H-pyrazol-1-yl)-3-sulfamoylphenyl]acetamide]"
76,481,"NS(=O)(=O)c1cc(NC(=O)Cc2ccccc2Cl)ccc1-c1cnn(CCN2CCCC2)c1 [Example 281, 2-(2-Chlorophenyl)-N-(4-{1-[2-(pyrrolidin-1-yl)ethyl]-1H-pyrazol-4-yl}-3-sulfamoyl-phenyl)acetamide]"
98,267,"Cc1nn(-c2ccc(NC(=O)Cc3ccccc3Cl)cc2S(N)(=O)=O)c(C)c1Cl [Example 543, N-[4-(4-Chloro-3,5-dimethyl-1H-pyrazol-1-yl)-3-sulfamoylphenyl]-2-(2-chlorophenyl)acetamide]"
75,1380,"N#Cc1cnn(-c2ccc(NC(=O)C(O)c3ccccc3Cl)cc2S(N)(=O)=O)c1 (stereo not shown) [Example 558, 2-(2-Chlorophenyl)-N-[4-(4-cyano-1H-pyrazol-1-yl)-3-sulfamoylphenyl]-2-hydroxyacetamide]"
57,207,"NS(=O)(=O)c1cc(NC(=O)Cc2ccccc2F)ccc1-n1ncc2ccccc21 [Example 398, 2-(2-Fluorophenyl)-N-[4-(1H-indazol-1-yl)-3-sulfamoylphenyl]acetamide]"
91,391,"NS(=O)(=O)c1cc(NC(=O)Cc2ccccc2Cl)ccc1-n1cc(NC(=O)C(F)F)cn1 [Example 506, N-[1-(4-{[(2-Chlorophenyl)acetyl]amino}-2-sulfamoylphenyl)-1H-pyrazol-4-yl]-2,2-difluoroacetamide]"

# Continued, compound first:
Structure (SMILES),Emax [%],IC50 [nM]
"CC(C)(O)c1cnn(-c2ccc(NC(=O)Cc3ccccc3F)cc2S(N)(=O)=O)c1 [Example 237, 2-(2-Fluorophenyl)-N-{4-[4-(2-hydroxypropan-2-yl)-1H-pyrazol-1-yl]-3-sulfamoyl-phenyl}acetamide]",72,1890
"NS(=O)(=O)c1cc(NC(=O)Cc2ccccc2F)ccc1-n1cnc(C2CC2)c1 [Example 263, N-[4-(4-Cyclopropyl-1H-imidazol-1-yl)-3-sulfamoylphenyl]-2-(2-fluorophenyl)-acetamide]",96,337
"NS(=O)(=O)c1cc(NC(=O)Cc2c(Cl)cccc2C(F)(F)F)ccc1-n1cc(Cl)cn1 [Example 103, N-[4-(4-Chloro-1H-pyrazol-1-yl)-3-sulfamoylphenyl]-2-[2-chloro-6-(trifluoromethyl)-phenyl]acetamide]",103,174
"N#Cc1cnn(-c2ccc(NC(=O)Cc3ccc(Cl)cc3Cl)cc2S(N)(=O)=O)c1 [Example 186, N-[4-(4-Cyano-1H-pyrazol-1-yl)-3-sulfamoylphenyl]-2-(2,4-dichlorophenyl)acetamide]",78,40
"COc1ccccc1CC(=O)Nc1ccc(-n2cnc(C(F)(F)F)n2)c(S(N)(=O)=O)c1 [Example 53, 2-(2-Methoxyphenyl)-N-{3-sulfamoyl-4-[3-(trifluoromethyl)-1H-1,2,4-triazol-1-yl]-phenyl}acetamide]",52,169
"CCOc1ccccc1CC(=O)Nc1ccc(-n2cc(F)cn2)c(S(N)(=O)=O)c1 [Example 156, 2-(2-Ethoxyphenyl)-N-[4-(4-fluoro-1H-pyrazol-1-yl)-3-sulfamoylphenyl]acetamide]",94,243
"COc1ccc(CC(=O)Nc2ccc(-n3cc(C(F)(F)F)cn3)c(S(N)(=O)=O)c2)cc1 [Example 121, 2-(4-Methoxyphenyl)-N-{3-sulfamoyl-4-[4-(trifluoromethyl)-1H-pyrazol-1-yl]phenyl}-acetamide]",70,292
"NS(=O)(=O)c1cc(NC(=O)Cc2cc(Cl)ccc2Cl)ccc1-n1cc(Cl)cn1 [Example 99, N-[4-(4-Chloro-1H-pyrazol-1-yl)-3-sulfamoylphenyl]-2-(2,5-dichlorophenyl)acetamide]",87,499
"Cc1ccc(Cl)c(CC(=O)Nc2ccc(-n3cc(Cl)cn3)c(S(N)(=O)=O)c2)c1 [Example 97, 2-(2-Chloro-5-methylphenyl)-N-[4-(4-chloro-1H-pyrazol-1-yl)-3-sulfamoylphenyl]-acetamide]",103,201
"N#Cc1cnn(-c2ccc(NC(=O)Cc3ccc(F)c(F)c3)cc2S(N)(=O)=O)c1 [Example 189, N-[4-(4-Cyano-1H-pyrazol-1-yl)-3-sulfamoylphenyl]-2-(3,4-difluorophenyl)acetamide]",60,199
"NS(=O)(=O)c1cc(NC(=O)Cc2ccccc2Cl)ccc1-n1cc(CC(F)F)cn1 [Example 259, 2-(2-Chlorophenyl)-N-{4-[4-(2,2-difluoroethyl)-1H-pyrazol-1-yl]-3-sulfamoylphenyl}-acetamide]",91,50
"NS(=O)(=O)c1cc(NC(=O)Cc2ccccc2Cl)ccc1-n1ccc(F)n1 [Example 257, 2-(2-Chlorophenyl)-N-[4-(3-fluoro-1H-pyrazol-1-yl)-3-sulfamoylphenyl]acetamide]",81,51
"N#Cc1cnn(-c2ccc(NC(=O)Cc3cccc(F)c3)cc2S(N)(=O)=O)c1 [Example 185, N-[4-(4-Cyano-1H-pyrazol-1-yl)-3-sulfamoylphenyl]-2-(3-fluorophenyl)acetamide]",71,248
"N#Cc1cnn(-c2ccc(NC(=O)Cc3cccnc3Cl)cc2S(N)(=O)=O)c1 [Example 201, 2-(2-Chloropyridin-3-yl)-N-[4-(4-cyano-1H-pyrazol-1-yl)-3-sulfamoylphenyl]-acetamide]",83,4330
"NS(=O)(=O)c1cc(NC(=O)Cc2c(Cl)cccc2Cl)ccc1-n1cc(C(F)(F)F)cn1 [Example 116, 2-(2,6-Dichlorophenyl)-N-{3-sulfamoyl-4-[4-(trifluoromethyl)-1H-pyrazol-1-yl]phenyl}-acetamide]",75,155
"Cc1cnn(-c2ccc(NC(=O)Cc3ccccc3F)cc2S(N)(=O)=O)c1 [Example 262, 2-(2-Fluorophenyl)-N-[4-(4-methyl-1H-pyrazol-1-yl)-3-sulfamoylphenyl]acetamide]",92,235
"NS(=O)(=O)c1cc(NC(=O)Cc2ccccc2O)ccc1-n1cc(Cl)cn1 [Example 85, N-[4-(4-Chloro-1H-pyrazol-1-yl)-3-sulfamoylphenyl]-2-(2-hydroxyphenyl)acetamide]",92,42
